Data published in patent US11260060B2, “Methods and formulations for treatment of and/or protection against acute liver failure and other hepatotoxic conditions” (EGETIS THERAPEUTICS AB, priority 2016, dated 2022).

Assays:
[1] = system: acetaminophen-induced ALF in male B6C3F1 mice; experiment: Animal deaths in acetaminophen-induced ALF mice within 12 hour sampling period; assay type: in vivo; conditions: within 12 hours after APAP 300 mg/kg i.p., i.v. treatment 1-6 hours post APAP, pooled doses
Source text: This Example studied the pharmaceutical effects of individual and combined therapies on animal deaths and involved male B6C3F1 mice. Even though serum enzyme activity studies are strongly indicative of liver failure or protection, it is also important to consider other data such as that related to subject animal deaths (%) as a function of the pharmacological treatment. The experiments of this Example studied the pharmaceutical effects of individual and combined therapies on animal deaths in male B6C3F1 mice. The mice were fasted for 8-10 hours and ALF was induced with 300 mg/kg acetaminophen (APAP), i.p., with treatment as specified in the following test groups: • APAP control (n=81, APAP 300 mg/kg i.p.), • NAC (n=53, 30-300 mg/kg i.v., 1-6 hours post APAP), • CaM (n=97, 0.3-10 mg/kg i.v., 1-6 hours post APAP), • CaDPDP (n=10, 3-10 mg/kg i.v., 6 hours post APAP), and • NAC/CaM (n=28, NAC 300 mg/kg, combined with 0.3-10 mg/kg CaM i.v., 2.5-6 hours post APAP).

[2] = Forced temperature degradation of a NAC/CaM mixture at 70° C. for 6 hours; assay type: physicochemical; conditions: NAC/CaM mixture in deionised water
Source text: This Example describes short and long term stability studies involving mixtures of Calmangafodipir and NAC. Each mixture was formed by adding CaM (in the form of a trisodium salt powder) and NAC to deionised water and mixing on a Vortex shaker. The solution was then transferred to an amber vial. In these studies, typically no additives or stabilizers were used. Standard degradation studies undertaken at short term used the known method of “forced” temperature degradation by storing solutions at 70° C. for 6 hours (to indicate general longer-term storage performance). Samples were withdrawn at specified time points and analyzed by standard spectroscopic methods for N-acetylcysteine (NAC), Calmangafodipir (CaM) and Calmangafodipir-related substances.

[3] = system: acetaminophen-induced ALF in male B6C3F1 mice; experiment: Acetaminophen-induced ALF mouse model, ALAT at 12 hours; assay type: in vivo; conditions: NAC 30-300 mg/kg 1 hour post 300 mg/kg i.p. acetaminophen, FIG. 7
Description: In each experiment, an i.p. injection of 300 mg/kg acetaminophen was made to male B6C3F1 mice to cause acetaminophen-induced ALF. In a first experiment, a 300 mg/kg dosage of NAC was administered 1-6 hours after acetaminophen administration. In a second experiment, NAC was administered in a dosage of 30-300 mg/kg NAC 1 hour after acetaminophen administration. In a third experiment, a dosage of 0.3-10 mg/kg calmangafodipir (CaM) was administered 6 hours post acetaminophen administration. In each experiment, ALAT was measured 12 hours following the i.p. injection of 300 mg/kg acetaminophen. FIGS. 6 to 8 show ALF response to administration of NAC and CaM, as detected by monitoring ALAT. […] FIG. 7 indicates the NAC dose-response of NAC administration of 30-300 mg/kg NAC 1 hour post acetaminophen administration. Mean±SEM ALAT levels at 12 hours following i.p. injection of 300 mg/kg acetaminophen in male B6C3F1 mice (n=4-11 per bar) are shown. […] Median±interquartile ALAT levels at 12 hours following i.p. injection of acetaminophen in male B6C3F1 mice (n=4-16 per bar) are shown. Due to some outlier values, and variability from the two experiments, both of which are not unexpected in such model system studies, the data points are plotted individually as well as the median values±inter-quartile range.

Compound	Deaths, % [1]	Deaths, no. [1]	concentration of NAC during forced degradation [2]	NAC dose-response of ALAT levels [3]	Deaths, % ([1]; listed as calmangafodipir)	decrease in CaM concentration during forced degradation [2]
CC(=O)N[C@@H](CS)C(=O)O [NAC, N-acetylcysteine]	8%	4	remained constant	No clear dose-response could be detected		
calmangafodipir [CaM]	8%	8			8%	about 1 % per hour
